pIC50: −log10 of the molar value.
Assays:
[1] = molecular target: T1, HCV polymerase (Hepatitis C virus genotype 1b, UniProt Q9WMX2); assay: Polymerase assay of Biological Example 1 (IC50 values of Table 3); format: biochemical; details: IC50 values of Table 3, polymerase assay of Biological Example 1; read-out: NS5B-enzyme3
T1 construct: (His)6 (C); made in house; host or cells: XL-1 cells (E. coli, by own knowledge)

[2] = test system: HCV replicon I389luc-ubi-neo/NS3-3′/ET in ET (Huh-lucubineo-ET) cells; assay: Replicon assay (Biological Example 2), luciferase readout; format: cell-based; details: Hepatitis C virus; ET cells, luciferase activity 48 hours after compound
In short: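 EC50 values come from Hill fits of % inhibition of replicon-driven firefly luciferase, relative to no-compound wells. Compounds were serially diluted (10 points, 3-fold, 0.1 nM–50 μM final, 0.5% DMSO) onto ET replicon cells and read after 48 h.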

Question: `CC(C)(C)OC(=O)N1CCN(c2ccc(S(=O)(=O)N3CC(=O)N(c4cc(-c5ccccc5)sc4C(=O)O)[C@H](C4CCCCC4)C3)cn2)C[C@@H]1CO` [Compound 161, (R)-4-{5-[(R)-4-(2-Carboxy-5-phenyl-thiophen-3-yl)-3-cyclohexyl-5-oxo-piperazine-1-sulfonyl]-pyridin-2-yl}-2-hydroxymethyl-piperazine-1-carboxylic acid tert-butyl ester] was tested. Which pIC50 [1] did it give?
Answer: 9.00

Question: And the pIC50 [2]?
Answer: ≥ 7.00

Question: With `C[C@H]1CN(c2ccc(S(=O)(=O)N3CC(=O)N(c4cc(-c5ccccc5)sc4C(=O)O)[C@H](C4CCCCC4)C3)cn2)CCN1C(=O)OC(C)(C)C` [Compound 162, (S)-4-{5-[(R)-4-(2-Carboxy-5-phenyl-thiophen-3-yl)-3-cyclohexyl-5-oxo-piperazine-1-sulfonyl]-pyridin-2-yl}-2-methyl-piperazine-1-carboxylic acid tert-butyl ester] as the molecule, how does the pIC50 [1] read?
Answer: 8.70

Question: What about the pIC50 [2] of the same molecule?
Answer: ≥ 7.00

Question: How did the pIC50 [1] turn out when `CN(C)[C@@H]1CCN(c2ccc(S(=O)(=O)N3CC(=O)N(c4cc(-c5ccccc5)sc4C(=O)O)[C@H](C4CCCCC4)C3)cn2)C1` [Compound 163, 3-{(R)-2-Cyclohexyl-4-[6-((R)-3-dimethylamino-pyrrolidin-1-yl)-pyridine-3-sulfonyl]-6-oxo-piperazin-1-yl}-5-phenyl-thiophene-2-carboxylic acid] was run?
Answer: 9.00

Question: What about the pIC50 [2] of the same molecule?
Answer: ≥ 7.00

Question: What does the source list for `C[C@@H]1CC[C@H](C)N1c1ccc(S(=O)(=O)N2CC(=O)N(c3cc(-c4ccccc4)sc3C(=O)O)[C@H](C3CCCCC3)C2)cn1` [Compound 164, 3-{(R)-2-Cyclohexyl-4-[6-((2S,5R)-2,5-dimethyl-pyrrolidin-1-yl)-pyridine-3-sulfonyl]-6-oxo-piperazin-1-yl}-5-phenyl-thiophene-2-carboxylic acid]?
Answer: pIC50 [1]: 9.00; pIC50 [2]: ≥ 7.00

Question: What does the source list for `CC(C)(C)OC(=O)N[C@H]1CCN(c2ccc(S(=O)(=O)N3CC(=O)N(c4cc(-c5ccccc5)sc4C(=O)O)[C@H](C4CCCCC4)C3)cn2)C1` [Compound 165, 3-{(R)-4-[6-((S)-3-tert-Butoxycarbonylamino-pyrrolidin-1-yl)-pyridine-3-sulfonyl]-2-cyclohexyl-6-oxo-piperazin-1-yl}-5-phenyl-thiophene-2-carboxylic acid]?
Answer: pIC50 [1]: 8.70; pIC50 [2]: ≥ 7.00

Question: With `Cc1ccc(S(=O)(=O)N2CC(=O)N(c3cc(C#CC(C)(C)C)sc3C(=O)O)C(C3CCCCC3)C2)cc1` (centres unmarked) [Compound 166, 3-[2-Cyclohexyl-6-oxo-4-(toluene-4-sulfonyl)-piperazin-1-yl]-5-(3,3-dimethyl-but-1-ynyl)-thiophene-2-carboxylic acid] as the molecule, how does the pIC50 [1] read?
Answer: 6.01

Question: What about the pIC50 [2] of the same molecule?
Answer: ≤ 5.30

Question: With `C[C@@H]1CN(c2ccc(S(=O)(=O)N3CC(=O)N(c4cc(-c5ccccc5)sc4C(=O)O)[C@H](C4CCCCC4)C3)cn2)C[C@H](C)O1` [Compound 167, 3-{(R)-2-Cyclohexyl-4-[6-((2R,6S)-2,6-dimethyl-morpholin-4-yl)-pyridine-3-sulfonyl]-6-oxo-piperazin-1-yl}-5-phenyl-thiophene-2-carboxylic acid] as the molecule, how does the pIC50 [1] read?
Answer: 8.46

Question: What about the pIC50 [2] of the same molecule?
Answer: ≥ 7.00

Question: What does the source list for `CC(C)(C)C#Cc1cc(N2C(=O)CN(S(=O)(=O)c3ccc(N4CCOCC4)nc3)CC2C2CCCCC2)c(C(=O)O)s1` (centres unmarked) [Compound 168, 3-[2-Cyclohexyl-4-(6-morpholin-4-yl-pyridine-3-sulfonyl)-6-oxo-piperazin-1-yl]-5-(3,3-dimethyl-but-1-ynyl)-thiophene-2-carboxylic acid]?
Answer: pIC50 [1]: 5.42; pIC50 [2]: ≥ 7.00

Question: What does the source list for `O=C(O)c1sc(-c2ccccc2)cc1N1C(=O)CN(S(=O)(=O)c2cnc(N3CCCC3)c(Cl)c2)C[C@H]1C1CCCCC1` [Compound 169]?
Answer: pIC50 [1]: 8.52; pIC50 [2]: ≥ 7.00

Question: Which results are given for `C[C@@H]1CCCN1c1ncc(S(=O)(=O)N2CC(=O)N(c3cc(-c4ccccc4)sc3C(=O)O)[C@H](C3CCCCC3)C2)cc1Cl` [Compound 170, 3-{(R)-4-[5-Chloro-6-((R)-2-methyl-pyrrolidin-1-yl)-pyridine-3-sulfonyl]-2-cyclohexyl-6-oxo-piperazin-1-yl}-5-phenyl-thiophene-2-carboxylic acid]?
Answer: pIC50 [1]: 8.40; pIC50 [2]: ≥ 7.00
